Experimental data from patent US10472688B2, “Compositions and methods for producing podophyllotoxin derivatives” (The Board of Trustees of the Leland Stanford Junior …, priority 2015, dated 2019).

Columns and labels:
[1] = target: T1, (−)-pluviatolide O-methyltransferase (OMT3) (Sinopodophyllum hexandrum, UniProt A0A0N9HMN6); test: In vitro characterization of recombinant OMT3 (steady state kinetics, substrate specificity); assay type: biochemical, P. hexandrum; details: for acceptance as substrate by OMT3: (+)-pinoresinol 400 μM, (−)-matairesinol 40 μM, (−)-arctigenin 40 μM, quenched after 2 h
T1 construct: 6xHis (N); made in house; host or cells: E. coli BL21 (DE3), pET28a
T1 sequence (A0A0N9HMN6 1-372): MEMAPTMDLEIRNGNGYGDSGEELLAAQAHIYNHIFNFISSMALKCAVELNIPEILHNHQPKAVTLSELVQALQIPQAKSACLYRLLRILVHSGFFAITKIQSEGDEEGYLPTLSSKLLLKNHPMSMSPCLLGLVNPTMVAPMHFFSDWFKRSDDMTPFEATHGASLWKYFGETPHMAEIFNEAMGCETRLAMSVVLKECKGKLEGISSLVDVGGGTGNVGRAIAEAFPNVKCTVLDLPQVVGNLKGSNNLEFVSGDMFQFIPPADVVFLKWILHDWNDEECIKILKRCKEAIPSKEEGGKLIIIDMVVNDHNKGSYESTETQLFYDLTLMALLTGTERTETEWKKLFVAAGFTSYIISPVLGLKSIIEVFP

2-ODD = target: T2, 2-ODD (Sinopodophyllum hexandrum, UniProt A0A0N9HQ36); test: 2-ODD enzyme assays; assay type: biochemical, P. hexandrum; details: 5 μg/mL 2-ODD, 2-oxoglutarate, FeSO4, 30 μM substrate, 30° C., 2 h
T2 construct: 6xHis (C); made in house; host or cells: E. coli BL21 (DE3), pET24b
Procedure: The above protocol was also followed for the expression and purification of 2-ODD from BL21 (DE3) E. coli harboring pET24b:2-ODD except for the following changes: the 2 L culture at OD600=0.6 was cooled to 16° C. and induced with 100 μM IPTG. The culture was further incubated at 16° C. for 24 h and cooled in ice water before proceeding with purification.
Assays lacking enzyme or 2-oxoglutarate served as negative controls.
(§1) Total reaction volumes were 50 μL.

CYP71BE54 = target: T3, CYP71BE54 (Sinopodophyllum hexandrum, UniProt A0A0N9HT29); test: CYP71BE54-microsome assays; details: 4 mg/mL microsomes, 1 mM NADPH, 50 μM substrate, 30° C., 2 h
T3 sequence (A0A0N9HT29 1-507): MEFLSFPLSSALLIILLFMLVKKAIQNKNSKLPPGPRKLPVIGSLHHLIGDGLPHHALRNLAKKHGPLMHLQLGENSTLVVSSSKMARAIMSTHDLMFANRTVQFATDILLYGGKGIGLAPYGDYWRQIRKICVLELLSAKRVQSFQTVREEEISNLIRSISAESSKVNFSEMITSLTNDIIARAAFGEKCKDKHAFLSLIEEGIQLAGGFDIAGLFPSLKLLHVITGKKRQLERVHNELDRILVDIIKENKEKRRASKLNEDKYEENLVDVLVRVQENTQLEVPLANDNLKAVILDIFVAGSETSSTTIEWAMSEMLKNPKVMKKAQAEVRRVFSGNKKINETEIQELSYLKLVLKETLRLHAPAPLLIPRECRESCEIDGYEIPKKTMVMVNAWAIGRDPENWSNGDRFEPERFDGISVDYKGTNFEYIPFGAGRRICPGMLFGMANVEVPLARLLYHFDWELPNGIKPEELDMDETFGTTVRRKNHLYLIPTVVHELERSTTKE
Procedure: as §1

OMT1 = OMT1 enzyme assays; assay type: biochemical, P. hexandrum; details: 10 μg/mL OMT1, 1 mM SAM, 30 or 50 μM substrate, 30° C., 2 h
Procedure: The above protocol was also followed for the expression and purification of OMT1 from BL21 (DE3) E. coli harboring pET24b:OMT1.
Assay lacking SAM served as negative control.
as §1

CYP71CU1 = target: T4, CYP71CU1 (Sinopodophyllum hexandrum, UniProt A0A0N9HTU1); test: CYP71CU1-microsome assays; details: 1 mg/mL microsomes, 1 mM NADPH, 30 or 50 μM substrate, 30° C., 2 h
T4 sequence (A0A0N9HTU1 1-493): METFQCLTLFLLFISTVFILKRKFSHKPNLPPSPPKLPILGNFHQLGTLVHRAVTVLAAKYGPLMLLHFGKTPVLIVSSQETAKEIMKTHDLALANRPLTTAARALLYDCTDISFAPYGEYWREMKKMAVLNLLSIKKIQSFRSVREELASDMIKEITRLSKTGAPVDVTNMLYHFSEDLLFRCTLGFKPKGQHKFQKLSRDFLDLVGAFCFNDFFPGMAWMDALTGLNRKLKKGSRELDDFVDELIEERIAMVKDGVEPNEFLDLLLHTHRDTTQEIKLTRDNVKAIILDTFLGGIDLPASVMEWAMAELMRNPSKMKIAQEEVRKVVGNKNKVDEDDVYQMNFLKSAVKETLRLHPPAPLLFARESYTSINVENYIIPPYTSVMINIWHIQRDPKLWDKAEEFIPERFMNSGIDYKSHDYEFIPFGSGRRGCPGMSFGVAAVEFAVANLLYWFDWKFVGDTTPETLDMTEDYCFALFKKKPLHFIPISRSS
Procedure: Yeast growth, induction and microsome preparation were performed according to Pompon et al. Microsomes enriched with P450 were isolated in 50 mM Tris-Cl, pH=7.4, 20% glycerol, 1 mM EDTA, flash-frozen as pellets in liquid nitrogen and kept at −80° C. for long term storage. Total protein content was estimated by measuring UV absorbance at 280 nm on a NanoDrop 1000 spectrophotometer.
CYP71CU1-microsome assays contained 1 mg/mL of CYP71CU1-microsomes, 1 mM NADPH, 30 or 50 μM of substrate and 100 mM NaCl in sodium phosphate buffer (50 mM, pH 7.4). Assays with microsomes from WAT11 harboring an empty vector or lacking NADPH served as negative controls. […] Enzyme assays with both CYP71CU1-microsomes and OMT1 contained 1 mg/mL of CYP71CU1-microsomes, 1 mM NADPH, 10 μg/mL of purified OMT1, 1 mM SAM, 30 or 50 μM of substrate and 100 mM NaCl in sodium phosphate buffer (50 mM, pH 7.4).
All substrates [(−)-matairesinol, (−)-arctigenin, (−)-pluviatolide, (−)-5′-desmethoxy-yatein, (−)-yatein, (−)-deoxypodophyllotoxin, and (−)-podophyllotoxin] were derived from a 100% DMSO stock; final concentration of DMSO in enzyme assays was kept constant at 5%. Total reaction volumes were 50 μL. Reactions were initiated by the addition of enzyme and incubated at 30° C.
After 2 h of incubation, reactions were quenched by the addition of 1 volume of acetonitrile with 0.1% TFA and clarified by centrifugation for 10 min at 17,000 g.

T2 sequence (A0A0N9HQ36 whole entry): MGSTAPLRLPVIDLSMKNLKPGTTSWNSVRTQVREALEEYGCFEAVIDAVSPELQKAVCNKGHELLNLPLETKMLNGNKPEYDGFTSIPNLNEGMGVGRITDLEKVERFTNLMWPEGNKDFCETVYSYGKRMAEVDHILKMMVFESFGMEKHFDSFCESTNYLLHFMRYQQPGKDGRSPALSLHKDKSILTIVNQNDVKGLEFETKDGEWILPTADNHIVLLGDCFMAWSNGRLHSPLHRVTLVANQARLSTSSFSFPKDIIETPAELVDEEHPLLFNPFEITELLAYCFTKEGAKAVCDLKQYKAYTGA

SMILES | acceptance as substrate by OMT3 [1] | activity of CYP71BE54-enriched microsomes on substrate (CYP71BE54) | activity of OMT1 on substrate (OMT1) | activity of CYP71CU1 on substrate (CYP71CU1) | other results
COc1cc(C2OCC3C(c4ccc(O)c(OC)c4)OCC23)ccc1O (single isomer, unassigned; (+)) [(+)-pinoresinol] | did not turn over | – | – | – | –
COc1ccc(C[C@H]2C(=O)OC[C@@H]2Cc2ccc3c(c2)OCO3)cc1OC [(−)-5′-desmethoxy-yatein] | – | No activity | – | – | activity of 2-ODD on substrate, compared to (−)-yatein (2-ODD): some activity
COc1cc(C[C@H]2C(=O)OC[C@@H]2Cc2ccc(OC)c(OC)c2)ccc1O [(−)-arctigenin] | much lower efficiency | – | not active | not active | –
COc1cc(C[C@H]2COC(=O)[C@@H]2Cc2ccc(O)c(OC)c2)ccc1O [(−)-matairesinol] | much lower efficiency | – | not active | not active | –
COc1cc(C[C@H]2C(=O)OC[C@@H]2Cc2ccc3c(c2)OCO3)ccc1O [(−)-pluviatolide] | – | – | not active | not active | kcat ([1]; (−)-pluviatolide methylation by OMT3 purified from E. coli, 1 mM SAM, 22° C., pH 7.4): 0.72 s⁻¹; Km ([1]; (−)-pluviatolide methylation by OMT3 purified from E. coli, 1 mM SAM, 22° C., pH 7.4, read-out: apparent Km): 1.4 µM; activity of 2-ODD on substrate, compared to (−)-yatein (2-ODD): negligible activity
COc1cc([C@@H]2c3cc4c(cc3[C@H](O)[C@H]3COC(=O)[C@H]23)OCO4)cc(OC)c1OC [(−)-podophyllotoxin] | – | No activity | – | – | –
COc1cc(C[C@H]2C(=O)OC[C@@H]2Cc2ccc3c(c2)OCO3)cc(OC)c1OC [(−)-yatein] | – | No activity | – | – | –
